Measurements reported in patent US8575135B2 (Gilead Sciences, Inc., priority 2011, dated 2013).
Like-named read-outs stand apart in the source and are kept apart here.

Key:
Experiment in all cases: microbe, parasite or virus in culture
Conditions in all cases: Hepatitis C virus
[1] = tested on: stable HCV 2a JFH-1 Rluc replicon cells (L31 present in NS5A); format: cell-based
[2] = tested on: NS5A chimeric genotype 1b Con1 replicon with genotype 3a S52 strain NS5A gene; format: cell-based, HCV
Description: (§1) Evaluation of Cell-Based Anti-HCV Activity:
(§2) Antiviral potency (EC50) was determined using a Renilla luciferase (RLuc)-based HCV replicon reporter assay. […] To perform the assay for genotype 2a (with M31 present in NS5A) or 2b, NS5A chimeric genotype 2a JFH-1 replicons that encodes a RLuc-Neo reporter and either genotype 2a J6 strain NS5A gene or genotype 2b MD2b-1 strain NS5A gene (both with M31 present) respectively, were either transiently transfected (t) into Huh-Lunet cells or were established as stably replicating replicon cells (s) is provided. Either cells were dispensed into 384-well plates for EC50 assays. To perform the assay for genotype 3 and 4, NS5A chimeric genotype 1b Con1 replicons that encodes a Pi-RLuc reporter and either genotype 3a S52 strain NS5A gene or genotype 4a ED43 strain NS5A gene respectively, were transiently transfected (t) into Huh-Lunet cells, which were subsequently dispensed into 384-well plates. Compounds were dissolved in DMSO at a concentration of 10 mM and diluted in DMSO either manually or using an automated pipeting instrument. Serially 3-fold diluted compounds were either manually mixed with cell culture media and added to the seeded cells or directly added to the cells using an automated instrument. […] 72 hours later, cells were lysed and Renilla luciferase activity quantified as recommended by the manufacturer (Promega-Madison, Wis.). Non-linear regression was performed to calculate EC50 values.

[3] = tested on: NS5A chimeric genotype 2a JFH-1 replicon with genotype 2a J6 strain NS5A gene (M31 present); format: cell-based, HCV
Description: as §1, §2

[4] = tested on: NS5A chimeric genotype 2a JFH-1 replicon with genotype 2b MD2b-1 strain NS5A gene (M31 present); format: cell-based, HCV
Description: as §1, §2

[5] = tested on: stable HCV 1a RLuc replicon cells (genotype 1a H77 replicon); format: cell-based
Description: as §1, §2

[6] = tested on: 1a Pi-Rluc replicon with Q30R in genotype 1a NS5A; format: cell-based, HCV
Description: as §2
To determine the antiviral potency (EC50) against resistance mutants, resistance mutations, including M28T, Q30R, Q30H, L31M, and Y93C in genotype 1a NS5A and Y93H in genotype 1b NS5A, were introduced individually into either 1a Pi-Rluc or 1b Pi-Rluc replicons by site directed mutagenesis. Replicon RNA of each resistant mutant was transiently transfected into Huh-7-derived cured-51 cells and antiviral potency was determined on these transfected cells as described above.

[7] = tested on: NS5A chimeric genotype 1b Con1 replicon with genotype 4a ED43 strain NS5A gene; format: cell-based, HCV

| Structure (SMILES) | EC50 ([1]; read-out: 2a JFH) [nM] | EC50 ([1]; read-out: 2a JFH (nM)) [nM] | EC50 ([2]; read-out: 3a) [nM] | EC50 ([2]; read-out: 3a (nM)) [nM] | EC50 ([3]; read-out: 2a J6) [nM] | EC50 ([3]; read-out: 2a J6 (s) (nM)) [nM] | EC50 ([4]; read-out: 2b) [nM] | EC50 ([4]; read-out: 2b (s) (nM)) [nM] | EC50 ([5]; read-out: 1a) [nM] | EC50 ([5]; read-out: 1a (nM)) [nM] | EC50 ([6]; read-out: 1a Q30R) [nM] | EC50 ([6]; read-out: 1a Q30R (nM)) [nM] | EC50 ([7]; read-out: 4a) [nM] | EC50 ([7]; read-out: 4a (s) (nM)) [nM] | EC50 ([7]; read-out: 4a (t) (nM)) [nM] | EC50 ([3]; read-out: 2a Jb (t) (nM)) [nM] | EC50 ([4]; read-out: 2b (t) (nM)) [nM] |
| --- | --- | --- | --- | --- | --- | --- | --- | --- | --- | --- | --- | --- | --- | --- | --- | --- | --- |
| COC(=O)N[C@H](C(=O)N1CCC[C@H]1c1nc2c([nH]1)-c1cc3c(cc1CC2)-c1ccc(-c2cnc([C@@H]4CCCN4C(=O)[C@H](NC(=O)C4CC4)c4ccccc4)[nH]2)cc1CO3)C(C)C [Compound 494] | < 1 | 0.005 | < 1 | 0.005 | < 1 | 0.098 | < 1 | 0.017 | < 1 | 0.037 | < 1 | 0.118 | < 1 | 0.031 | 0.017 | – | – |
| COC[C@H]1C[C@@H](c2nc3ccc4cc5c(cc4c3[nH]2)OCc2cc(-c3cnc([C@@H]4CCCN4C(=O)[C@@H](NC(=O)OC)C(C)C)[nH]3)ccc2-5)N(C(=O)[C@@H](NC(=O)OC)C(C)C)C1 [Compound 495] | < 1 | 0.008 | < 1 | 0.024 | < 1 | 1.02 | < 1 | 0.541 | < 1 | 0.021 | < 1 | 0.201 | < 1 | 0.014 | 0.014 | 0.28 | 0.135 |
| COC[C@H]1C[C@@H](c2ncc(-c3ccc4c(c3)COc3cc5c(cc3-4)CCc3nc([C@@H]4CCCN4C(=O)[C@@H](NC(=O)OC)C(C)C)[nH]c3-5)[nH]2)N(C(=O)[C@H](NC(=O)OC)c2ccccc2)C1 [Example OK, Methyl {(1R)-2-[(2S,4S)-2-(5-{2-[(2S)-1-{(2S)-2-[(methoxycarbonyl)amino]-3-methylbutanoyl}pyrrolidin-2-yl]-1,4,5,11-tetrahydroisochromeno[4′,3′:6,7]naphtho[1,2-d]imidazol-9-yl}-1H-imidazol-2-yl)-4-(methoxymethyl)pyrrolidin-1-yl]-2-oxo-1-phenylethyl}carbamate] | < 1 | 0.011 | < 1 | 0.028 | < 1 | – | < 1 | 0.045 | < 1 | 0.026 | < 1 | 0.039 | – | – | – | 0.076 | 0.036 |
| COC[C@H]1C[C@@H](c2ncc(-c3ccc4c(c3)COc3cc5c(ccc6nc([C@@H]7C[C@@H]8C[C@@H]8N7C(=O)[C@@H](NC(=O)OC)C(C)C)[nH]c65)cc3-4)[nH]2)N(C(=O)[C@H](NC(=O)OC)c2ccccc2)C1 [Example OV, Methyl {(1R)-2-[(2S,4S)-2-(5-{2-[(1S,3S,5S)-2-{(2S)-2-[(methoxycarbonyl)amino]-3-methylbutanoyl}-2-azabicyclo[3.1.0]hex-3-yl]-1,11-dihydroisochromeno[4′,3′:6,7]naphtho[1,2-d]imidazol-9-yl}-1H-imidazol-2-yl)-4-(methoxymethyl)pyrrolidin-1-yl]-2-oxo-1-phenylethyl}carbamate] | < 1 | 0.007 | < 1 | 0.013 | < 1 | – | < 1 | – | < 1 | 0.01 | < 1 | 0.031 | – | – | – | 0.113 | 0.046 |
| COC[C@H]1C[C@@H](c2ncc(-c3ccc4c(c3)COc3cc5c(ccc6nc([C@@H]7C[C@H]8C[C@H]8N7C(=O)[C@@H](NC(=O)OC)C(C)C)[nH]c65)cc3-4)[nH]2)N(C(=O)[C@H](NC(=O)OC)c2ccccc2)C1 [Example PR, methyl {(1R)-2-[(2S,4S)-2-(5-{2-[(1R,3S,5R)-2-{(2S)-2-[(methoxycarbonyl)amino]-3-methylbutanoyl}-2-azabicyclo[3.1.0]hex-3-yl]-1,11-dihydroisochromeno[4′,3′:6,7]naphtho[1,2-d]imidazol-9-yl}-1H-imidazol-2-yl)-4-(methoxymethyl)pyrrolidin-1-yl]-2-oxo-1-phenylethyl}carbamate] | < 1 | 0.007 | < 1 | 0.018 | < 1 | – | < 1 | – | < 1 | 0.013 | < 1 | 0.045 | – | – | – | 0.022 | 0.028 |
| COC(=O)N[C@H](C(=O)N1[C@@H](C)CC[C@H]1c1nc2ccc3cc4c(cc3c2[nH]1)OCc1cc(-c2cnc([C@@H]3C[C@H](C)CN3C(=O)[C@H](NC(=O)OC)c3ccccc3)[nH]2)ccc1-4)C(C)C [Example QF, Methyl {(2S)-1-[(2S,5S)-2-(9-{2-[(2S,4S)-1-{(2R)-2-[(methoxycarbonyl)amino]-2-phenylacetyl}-4-methylpyrrolidin-2-yl]-1H-imidazol-5-yl}-1,11-dihydroisochromeno[4′,3′:6,7]naphtho[1,2-d]imidazol-2-yl)-5-methylpyrrolidin-1-yl]-3-methyl-1-oxobutan-2-yl}carbamate] | < 1 | 0.004 | < 1 | 0.02 | < 1 | – | < 1 | 0.011 | < 1 | 0.008 | < 1 | 0.032 | – | – | – | 0.053 | 0.015 |
| COC(=O)N[C@H](C(=O)N1C[C@@H](C)C[C@H]1c1ncc(-c2ccc3c(c2)COc2cc4c(ccc5nc([C@@H]6CC[C@H](C)N6C(=O)[C@@H](NC(=O)OC)C(C)C)[nH]c54)cc2-3)[nH]1)C(C)C [Example QG, Methyl {(2S)-1-[(2S,5S)-2-(9-{2-[(2S,4S)-1-{(2S)-2-[(methoxycarbonyl)amino]-3-methylbutanoyl}-4-methylpyrrolidin-2-yl]-1H-imidazol-5-yl}-1,11-dihydroisochromeno[4′,3′:6,7]naphtho[1,2-d]imidazol-2-yl)-5-methylpyrrolidin-1-yl]-3-methyl-1-oxobutan-2-yl}carbamate] | < 1 | 0.004 | < 1 | 0.016 | < 1 | – | < 1 | 0.043 | < 1 | 0.005 | < 1 | 0.071 | – | – | – | 0.551 | 0.065 |
| COC(=O)N[C@H](C(=O)N1[C@@H](C)CC[C@H]1c1nc2ccc3cc4c(cc3c2[nH]1)OCc1cc(-c2cnc([C@@H]3C[C@H](C)CN3C(=O)[C@@H](NC(=O)OC)[C@@H](C)OC)[nH]2)ccc1-4)C(C)C [Example QH, Methyl {(2S)-1-[(2S,5S)-2-(9-{2-[(2S,4S)-1-{(2S,3R)-3-methoxy-2-[(methoxycarbonyl)amino]butanoyl}-4-methylpyrrolidin-2-yl]-1H-imidazol-5-yl}-1,11-dihydroisochromeno[4′,3′:6,7]naphtho[1,2-d]imidazol-2-yl)-5-methylpyrrolidin-1-yl]-3-methyl-1-oxobutan-2-yl}carbamate] | < 1 | 0.005 | < 1 | 0.02 | < 1 | – | < 1 | 0.049 | < 1 | 0.007 | < 1 | 0.051 | – | – | – | 0.182 | 0.051 |
